In paper PMC6225178 (Molecules : A Journal of Synthetic Chemistry and Natural …, 2018):

Columns and labels:
[1] = Oxidation inhibition of the o/w emulsion (TBARS); conditions: for Inhibition of Oxidation of o/w Emulsion: determined at 100 µM, oxidation induced with Mohr's salt 5 mM, TBARS, n.a. ^c = no protection detected; for protection against the induced oxidation (in words): o/w emulsion model
Experimental: The emulsion containing 15 mg of sorbitan sesquioleate, 50 mg of flaxseed oil, and 2 mL of 10 mM Tris-HCl buffer, pH 7.4, was prepared by the method. Determination of the oxidation inhibition of the o/w emulsion was carried out according to a procedure described previously, using 20 μL of the 1:1 (v/v) buffer-diluted emulsion, methanolic solution of each compound (final concentration 100 μM), and ammonium iron(II) sulfate hexahydrate (Mohr′s salt) (5 mM). Thiobarbituric acid reacting substances (TBARS) were determined according to [44].

DPPH assay = conditions: for IC50: 30 min incubation at room temperature, absorbance 517 nm, n.a. ^c = no protection detected, n.a. ^d = IC50 > 5 mM
Experimental: The 2,2-diphenyl-1-picrylhydrazyl (DPPH) assay was performed using a previously reported method with a modification. A series of samples consisting of 900 μL of the 0.04 mg/mL methanolic solution of DPPH and different concentrations of the compounds (100 μL) were prepared. Then, the absorbance at 517 nm was measured after a 30 min incubation at room temperature. The half maximal inhibitory concentration (IC50) was used as an indicating measure of the scavenging activity.

[2] = system: normal human dermal fibroblast (NHDF) cell line; test: Cell viability assay (MTT) in the NHDF cell line; format: cell-based; conditions: highest concentration
Experimental: The cytotoxicity test was performed as described in [44] using the NHDF cell line treated with the methanolic solution of the tested compounds to obtain the final concentrations of 12.5, 25, 50, 100, 200, or 250 µM, and incubation for 24 and 48 h. Cell viability was assessed by the MTT method.

| Compound | Inhibition of Oxidation of o/w Emulsion [1] | IC50 (DPPH assay) | DPPH scavenging ability (in words) (DPPH assay) | antioxidant activity compared with caffeic acid (in words) [1] | protection against the induced oxidation (in words) [1] | effect on viability of NHDF cells after 48 h (in words) [2] |
| --- | --- | --- | --- | --- | --- | --- |
| O=C(O)/C=C/c1ccc(O)c(O)c1 [CA, caffeic acid, reference compound] | 26.1 ± 2.9 | 32.2 µM |  |  |  |  |
| CC(=O)/C=C/c1ccccc1O [Compound 6, 4-(2′-hydroxyphenyl)-3(E)-buten-2-one] |  |  | no scavenging ability |  |  |  |
| COC(=O)/C=C/c1ccc(O)cc1 [Compound 8, 3-(4′-Hydroxyphenyl)-(E)-propenoic acid methyl ester] | 22.7 ± 6.4 |  | no scavenging ability |  |  |  |
| COC(=O)/C=C/c1ccccc1O [Compound 9, 3-(2.′-Hydroxyphenyl)-(E)-propenoic acid methyl ester] | 2.6 ± 1.5 |  | no scavenging ability |  |  |  |
| COC(=O)/C=C/c1cccc(O)c1 [Compound 10, 3-(3′-Hydroxyphenyl)-(E)-propenoic acid methyl ester] | 18.4 ± 2.2 |  | no scavenging ability |  |  |  |
| COC(=O)/C=C/c1ccc(O)cc1O [Compound 11, 3-(2′,4′-dihydroxyphenyl)-(E)-propenoic acid methyl ester] | 33.7 ± 6.5 | 1020 µM |  |  |  |  |
| COC(=O)/C=C/c1ccc(O)c(O)c1O [Compound 12, 3-(2′,3′,4′-trihydroxyphenyl)-(E)-propenoic acid methyl ester] | 55.5 ± 2 | 18.6 µM |  | higher antioxidant activity than caffeic acid | highest protection against the induced oxidation |  |
| COC(=O)/C=C/c1cc(O)c(O)cc1O [Compound 13, 3-(2′,4′,5′-trihydroxyphenyl)-(E)-propenoic acid methyl ester] | 38.6 ± 2.3 | 53.3 µM |  | higher antioxidant activity than caffeic acid | highest protection against the induced oxidation | this effect after 48 h was not clearly noticeable |
| COC(=O)/C=C/c1ccc(O)c(OC)c1 [Compound 14, 3-(4′-hydroxy-3-metoxyphenyl)-(E)-propenoic acid methyl ester] | 14.8 ± 2 | 58.9 µM |  |  |  |  |
| CC(=O)/C=C/c1cccc(O)c1 [Compound 15, 4-(3′-hydroxyphenyl)-3(E)-buten-2-one] |  |  | no scavenging ability |  |  |  |
| CC(=O)/C=C/c1ccc(O)cc1 [Compound 16, 4-(4′-hydroxyphenyl)-3(E)-buten-2-one] | 6.8 ± 4.4 |  | no scavenging ability |  |  |  |
| CC(=O)/C=C/c1ccc(O)cc1O [Compound 17, 4-(2′,4′-dihydroxyphenyl)-3(E)-buten-2-one] | 4.6 ± 1.3 | 688 µM |  |  |  |  |
| CC(=O)/C=C/c1ccc(O)c(O)c1O [Compound 18, 4-(2′,3′,4′-trihydroxyphenyl)-3(E)-buten-2-one] | 28.6 ±4 | 16.8 µM |  | higher antioxidant activity than caffeic acid | highest protection against the induced oxidation |  |
| COc1cc(/C=C/C(C)=O)ccc1O [Compound 20, 4-(3′-methoxy-4′-hydroxyphenyl)-3(E)-buten-2-one] | 7.9 ± 2.1 | 61.8 µM |  |  |  | this effect after 48 h was not clearly noticeable |
